The target of one test is T1, human FPR1 receptors (Homo sapiens, UniProt P21462).
T1 sequence (P21462 1-350): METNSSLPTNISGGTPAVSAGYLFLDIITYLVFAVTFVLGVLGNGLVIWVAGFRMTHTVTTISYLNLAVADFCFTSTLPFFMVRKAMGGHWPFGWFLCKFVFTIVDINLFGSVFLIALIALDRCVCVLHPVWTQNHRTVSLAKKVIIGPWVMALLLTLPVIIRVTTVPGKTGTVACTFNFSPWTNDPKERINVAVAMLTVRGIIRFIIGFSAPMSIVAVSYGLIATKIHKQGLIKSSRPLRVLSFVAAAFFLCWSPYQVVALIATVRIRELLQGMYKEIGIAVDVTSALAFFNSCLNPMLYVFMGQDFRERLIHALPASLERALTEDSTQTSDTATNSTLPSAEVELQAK
The experiment in a line: FPR1 cyclic adenosine monophosphate (cAMP) assay. The settings on record: CHO cells overexpressing human FPR1; forskolin 10 μM, IBMX 200 μM; 30 min at rt; inhibition of cAMP production (HTRF); read-out: hFPR1 cAMP EC50. Format: cell-based. The source says: (§1) N-formyl peptide receptors (FPRs) are a family of chemo attractant receptors that facilitate leukocyte response during inflammation. FPRs belong to the seven-transmembrane G protein-coupled receptor superfamily and are linked to inhibitory G-proteins (Gi). Three family members (FPR1, FPR2 and FPR3) have been identified in humans and are predominantly found in myeloid cells with varied distribution and have also been reported in multiple organs and tissues. After agonist binding, the FPRs activate a multitude of physiological pathways, such as intra cellular signaling transduction, Ca^2+ mobilization and transcription. The family interacts with a diverse set of ligands that includes proteins, polypeptides and fatty acid metabolites which activate both pro-inflammatory and pro-resolution downstream responses. FPR2 and FPR1 Cyclic Adenosine Monophosphate (cAMP) Assays were used to measure the activity of the compounds in this patent.
(§2) FPR2 and FPR1 Cyclic Adenosine Monophosphate (cAMP) Assays. A mixture of forskolin (5 μM final for FPR2 or 10 μM final for FPR1) and IBMX (200 μM final) were added to 384-well Proxiplates (Perkin-Elmer) pre-dotted with test compounds in DMSO (1% final) at final concentrations in the range of 0.020 nM to 100 μM. Chinese Hamster Ovary cells (CHO) overexpressing human FPR1 or human FPR2 receptors were cultured in F-12 (Ham's) medium supplemented with 10% qualified FBS, 250 μg/mL zeocin and 300 μg/mL hygromycin (Life Technologies). Reactions were initiated by adding 2,000 human FPR2 cells per well or 4,000 human FPR1 cells per well in Dulbecco's PBS (with calcium and magnesium) (Life Technologies) supplemented with 0.1% BSA (Perkin-Elmer). The reaction mixtures were incubated for 30 min at rt. The level of intracellular cAMP was determined using the HTRF HiRange cAMP assay reagent kit (Cisbio) according to manufacturer's instruction. Solutions of cryptate conjugated anti-cAMP and d2 flurorophore-labelled cAMP were made in a supplied lysis buffer separately. Upon completion of the reaction, the cells were lysed with equal volume of the d2-cAMP solution and anti-cAMP solution. After a 1-h rt incubation, time-resolved fluorescence intensity was measured using the Envision (Perkin-Elmer) at 400 nm excitation and dual emission at 590 nm and 665 nm. A calibration curve was constructed with an external cAMP standard at concentrations ranging from 1 μM to 0.1 μM by plotting the fluorescent intensity ratio from 665 nm emission to the intensity from the 590 nm emission against cAMP concentrations. The potency and activity of a compound to inhibit cAMP production was then determined by fitting to a 4-parametric logistic equation from a plot of cAMP level versus compound concentrations.
(§3) The examples disclosed below were tested in the FPR2 and FPR1 cAMP assay described above and found having FPR2 and/or FPR1 agonist activity. Table 1 below lists EC50 values in the FPR2 and FPR1 cAMP assays measured for the following examples.
(In general: Changes in cAMP serve as a functional read-out for many G protein-coupled receptors.)

For the next test, the target named is T2, human FPR2 receptors (Homo sapiens, UniProt P25090).
T2 sequence (P25090 1-351): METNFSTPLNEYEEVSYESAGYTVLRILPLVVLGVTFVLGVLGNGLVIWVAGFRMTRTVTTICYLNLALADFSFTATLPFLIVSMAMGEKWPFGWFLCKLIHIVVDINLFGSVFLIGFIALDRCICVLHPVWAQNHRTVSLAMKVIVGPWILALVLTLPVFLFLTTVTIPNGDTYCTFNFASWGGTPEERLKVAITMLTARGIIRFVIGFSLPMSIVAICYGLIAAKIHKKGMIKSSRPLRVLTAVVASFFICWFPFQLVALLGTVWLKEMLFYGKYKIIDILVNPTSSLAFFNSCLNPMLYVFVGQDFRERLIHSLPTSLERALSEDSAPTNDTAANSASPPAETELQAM
The experiment in a line: FPR2 cyclic adenosine monophosphate (cAMP) assay. Format: cell-based. As to conditions: CHO cells overexpressing human FPR2; forskolin 5 μM, IBMX 200 μM; 30 min at rt; inhibition of cAMP production (HTRF); read-out: hFPR2 cAMP2 EC50.
From the text: as §1, §2, §3

From patent US20220298186A1, “BIARYL DIALKYL PHOSPHINE OXIDE FPR2 AGONISTS” (BRISTOL-MYERS SQUIBB COMPANY, priority 2019, published 2022) come the findings set out here.

The structures appear in SMILES notation. Some results are limits rather than exact numbers.

In general, EC50 refers to the concentration needed to bring the measured effect to its halfway point. With `CCP(=O)(CC)c1ccccc1-c1cc(F)c(N2CCC[C@@H](NC(=O)Nc3ncc(Cl)cc3F)C2=O)c(F)c1` [Example 15, 1-(5-Chloro-3-fluoropyridin-2-yl)-3-[(3R)-1-[2′-(diethylphosphoryl)-3,5-difluoro-[1,1′-biphenyl]-4-yl]-2-oxopiperidin-3-yl]urea], the EC50 on human FPR1 receptors came out at 7000 nM; on human FPR2 receptors, 8.3 nM.
With `CP(C)(=O)c1ccccc1-c1ccc(N2CCC[C@@H](NC(=O)Nc3ccc(Cl)cc3F)C2=O)c(C2CC2)c1` [Example 5, 1-(4-Chloro-2-fluorophenyl)-3-[(3R)-1-[3-cyclopropyl-2′-(dimethylphosphoryl)-[1,1′-biphenyl]-4-yl]-2-oxopiperidin-3-yl]urea], the EC50 was 17 nM at human FPR1 receptors and 0.76 nM at human FPR2 receptors.
Take `CCP(=O)(CC)c1ccccc1-c1ccc(N2CCC[C@@H](NC(=O)Nc3ncc(Cl)cc3F)C2=O)c(F)c1F` [Example 14, 1-(5-Chloro-3-fluoropyridin-2-yl)-3-[(3R)-1-[2′-(diethylphosphoryl)-2,3-difluoro-[1,1′-biphenyl]-4-yl]-2-oxopiperidin-3-yl]urea]: the half-maximal effective concentration (EC50) at human FPR1 receptors came to 1500 nM; on human FPR2 receptors, 6 nM.
In the case of `CP(C)(=O)c1ccccc1-c1cc(F)c(N2CCC[C@@H](NC(=O)Nc3cnc(Cl)cn3)C2=O)c(F)c1` [Example 17, 1-(5-Chloropyrazin-2-yl)-3-[(3R)-1-[2′-(dimethylphosphoryl)-3,5-difluoro-[1,1′-biphenyl]-4-yl]-2-oxopiperidin-3-yl]urea], the EC50 at human FPR1 receptors is above 10000 nM; at human FPR2 receptors, 8.6 nM.
On to `CP(C)(=O)c1ccccc1-c1ccc(N2CCC[C@@H](NC(=O)Nc3ccc(OC(F)(F)F)cc3)C2=O)c(F)c1F` [Example 10, 3-[(3R)-1-[2′-(Dimethylphosphoryl)-2,3-difluoro-[1,1′-biphenyl]-4-yl]-2-oxopiperidin-3-yl]-1-[4-(trifluoromethoxy)phenyl] urea], for which the figures for the EC50 at human FPR1 receptors and at human FPR2 receptors were 370 nM and 1.4 nM, respectively.
The matching figures for `CP(C)(=O)c1ccccc1-c1ccc(N2CCC[C@@H](NC(=O)Nc3ncc(C(F)(F)F)cc3F)C2=O)c(F)c1F` [Example 18]: above 10000 nM and 11.6 nM.
As to `CP(C)(=O)c1ccccc1-c1ccc(N2CCC[C@@H](NC(=O)Nc3ccc(Cl)cc3F)C2=O)cn1` [Example 19, 1-(4-Chloro-2-fluorophenyl)-3-[(3R)-1-{6-[2-(dimethylphosphoryl)phenyl]pyridin-3-yl}-2-oxopiperidin-3-yl]urea], the results for the EC50 on human FPR1 receptors and on human FPR2 receptors were 140 nM and 16.7 nM, respectively.
For `CP(C)(=O)c1ccccc1-c1ccc(N2CCC[C@@H](NC(=O)Nc3ccc(Cl)cc3F)C2=O)c(F)c1F` [Example 1, (R)-1-(4-Chloro-2-fluorophenyl)-3-(1-(2′-(dimethylphosphoryl)-2,3-difluoro-[1,1′-biphenyl]-4-yl)-2-oxopiperidin-3-yl)urea] the same measures were 110 nM and 0.12 nM.
On to `CP(C)(=O)c1ccccc1-c1ccc(N2CCC[C@@H](NC(=O)Nc3ncc(Cl)cc3F)C2=O)c(C2CC2)c1` [Example 4, 1-(5-Chloro-3-fluoropyridin-2-yl)-3-[(3R)-1-[3-cyclopropyl-2′-(dimethylphosphoryl)-[1,1′-biphenyl]-4-yl]-2-oxopiperidin-3-yl]urea], for which the EC50 at human FPR1 receptors stood at 7.1 nM; at human FPR2 receptors, 0.63 nM.
With `CP(C)(=O)c1ccccc1-c1cc(F)c(N2CCC[C@@H](NC(=O)Nc3ccc(Cl)cc3F)C2=O)c(F)c1` [Example 7, 1-(4-Chloro-2-fluorophenyl)-3-[(3R)-1-[2′-(dimethylphosphoryl)-3,5-difluoro-[1,1′-biphenyl]-4-yl]-2-oxopiperidin-3-yl]urea], the EC50 on human FPR1 receptors amounted to 2600 nM; at human FPR2 receptors it was 0.79 nM.
Consider `COc1ccc(NC(=O)N[C@@H]2CCCN(c3ccc(-c4ccccc4P(C)(C)=O)c(F)c3F)C2=O)c(F)c1` [Example 6, 3-[(3R)-1-[2′-(Dimethylphosphoryl)-2,3-difluoro-[1,1′-biphenyl]-4-yl]-2-oxopiperidin-3-yl]-1-(2-fluoro-4-methoxyphenyl)urea], for which the results for the EC50 at human FPR1 receptors and on human FPR2 receptors were 430 nM and 0.86 nM, respectively.
In the case of `COc1ccc(NC(=O)N[C@@H]2CCCN(c3c(F)cc(-c4ccccc4P(C)(C)=O)cc3F)C2=O)cc1` [Example 13, 3-[(3R)-1-[2′-(Dimethylphosphoryl)-3,5-difluoro-[1,1′-biphenyl]-4-yl]-2-oxopiperidin-3-yl]-1-(4-methoxyphenyl)urea], the EC50 at human FPR1 receptors is 2400 nM; on human FPR2 receptors, 5.6 nM.
`CP(C)(=O)c1ccccc1-c1cc(F)c(N2CCC[C@@H](NC(=O)Nc3ncc(Cl)cc3F)C2=O)c(F)c1` [Example 20, 1-(5-Chloro-3-fluoropyridin-2-yl)-3-[(3R)-1-[2′-(dimethylphosphoryl)-3,5-difluoro-[1,1′-biphenyl]-4-yl]-2-oxopiperidin-3-yl]urea]: the EC50 on human FPR1 receptors is above 10000 nM; at human FPR2 receptors it was 43.2 nM.
For `CCP(=O)(CC)c1ccccc1-c1cc(F)c(N2CCC[C@@H](NC(=O)Nc3ccc(Cl)cc3F)C2=O)c(F)c1` [Example 3, 1-(4-Chloro-2-fluorophenyl)-3-[(3R)-1-[2′-(diethylphosphoryl)-3,5-difluoro-[1,1′-biphenyl]-4-yl]-2-oxopiperidin-3-yl]urea] the same measures were 420 nM and 0.17 nM.
With `CP(C)(=O)c1ccccc1-c1ccc(N2CCC[C@@H](NC(=O)Nc3ccc(C(F)(F)F)cc3F)C2=O)c(F)c1F` [Example 2, 3-[(3R)-1-[2′-(Dimethylphosphoryl)-2,3-difluoro-[1,1′-biphenyl]-4-yl]-2-oxopiperidin-3-yl]-1-[2-fluoro-4-(trifluoromethyl)phenyl] urea], the half-maximal effective concentration (EC50) on human FPR1 receptors amounted to 300 nM; at human FPR2 receptors, 0.18 nM.
For the compound `CP(C)(=O)c1ccccc1-c1ccc(N2CCC[C@@H](NC(=O)Nc3ncc(Cl)cc3F)C2=O)c(F)c1F` [Example 9, 1-(5-Chloro-3-fluoropyridin-2-yl)-3-[(3R)-1-[2′-(dimethylphosphoryl)-2,3-difluoro-[1,1′-biphenyl]-4-yl]-2-oxopiperidin-3-yl]urea], the results for the EC50 on human FPR1 receptors and on human FPR2 receptors were 1400 nM and 2.2 nM, respectively.
For `CP(C)(=O)c1ccccc1-c1cc(F)c(N2CCC[C@@H](NC(=O)Nc3ccc(OC(F)(F)F)cc3)C2=O)c(F)c1` [Example 21, 3-[(3R)-1-[2′-(Dimethylphosphoryl)-3,5-difluoro-[1,1′-biphenyl]-4-yl]-2-oxopiperidin-3-yl]-1-[4-(trifluoromethoxy)phenyl] urea] the same measures were above 10000 nM and 22.1 nM.
As for `CP(C)(=O)c1ccccc1-c1ccc(N2CCC[C@@H](NC(=O)Nc3ccc(C(F)(F)F)cn3)C2=O)c(F)c1F` [Example 12, 3-[(3R)-1-[2′-(Dimethylphosphoryl)-2,3-difluoro-[1,1′-biphenyl]-4-yl]-2-oxopiperidin-3-yl]-1-[5-(trifluoromethyl)pyridin-2-yl]urea], the EC50 on human FPR1 receptors stood at 1300 nM; at human FPR2 receptors, 2.7 nM.
